Key:
Assay type in all cases: in vivo
[1] = tested on: Pharbitis purpurea; assay: Post-emergence herbicidal action; settings: application rate 5 g/ha, rated visually after about 3 weeks vs untreated controls
Summary of the method: (§1)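 Greenhouse-grown plants in sandy loam were sprayed at the one-leaf stage, 2 to 3 weeks after sowing, with compounds formulated as WP or EC in water plus 0.5% additive at 600 l/ha, at rates of 20 g/ha and less. Activity was scored visually after about 3 weeks against untreated controls (100% = dead).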

[2] = tested on: Digitaria sanguinalis; assay: Post-emergence herbicidal action; settings: rated visually after about 3 weeks vs untreated controls
Summary of the method: as §1

[3] = tested on: Avena fatua; assay: Post-emergence herbicidal action; settings: application rate 20 g/ha, rated visually after about 3 weeks vs untreated controls
Summary of the method: as §1

[4] = tested on: Matricaria inodora; assay: Post-emergence herbicidal action; settings: application rate 5 g/ha, rated visually after about 3 weeks vs untreated controls
Summary of the method: as §1

[5] = tested on: Echinochloa crus-galli; assay: Post-emergence herbicidal action; settings: application rate 5 g/ha, rated visually after about 3 weeks vs untreated controls
Summary of the method: as §1

[6] = tested on: Abutilon theophrasti; assay: Post-emergence herbicidal action; settings: application rate 5 g/ha, rated visually after about 3 weeks vs untreated controls
Summary of the method: as §1

[7] = tested on: Veronica persica; assay: Post-emergence herbicidal action; settings: application rate 5 g/ha
Summary of the method: as §1

[8] = tested on: Amaranthus retroflexus; assay: Post-emergence herbicidal action; settings: application rate 5 g/ha, rated visually after about 3 weeks vs untreated controls
Summary of the method: as §1

[9] = tested on: Pharbitis purpurea; assay: Pre-emergence herbicidal action
Excerpt: (§2) B. Pre-Emergence Herbicidal Action and Crop Plant Compatibility Seeds of monocotyledonous and dicotyledonous weed plants and crop plants were placed in plastic or organic planting pots and covered with soil. The compounds of the invention, formulated in the form of wettable powders (WP) or as emulsion concentrates (EC), were then applied to the surface of the covering soil as aqueous suspension or emulsion with addition of 0.5% additive at a water application rate equivalent to 600 l/ha (converted). After the treatment, the pots were placed in a greenhouse and kept under good growth conditions for the test plants. After about 3 weeks, the effect of the preparations was scored visually in comparison with untreated controls as percentages. For example, 100% activity=the plants have died, 0% activity=like control plants. Tables B1 to B13 below show the effects of selected compounds of the general formula (I) according to Tables I.1 to I.36 on various harmful plants and at an application rate corresponding to 80 g/ha or less, which were obtained by the experimental procedure mentioned above.

[10] = tested on: Polygonum convolvulus; assay: Pre-emergence herbicidal action; settings: application rate 20 g/ha
Excerpt: as §2

[11] = tested on: Digitaria sanguinalis; assay: Pre-emergence herbicidal action; settings: application rate 20 g/ha
Excerpt: as §2

[12] = tested on: Avena fatua; assay: Pre-emergence herbicidal action; settings: application rate 80 g/ha
Excerpt: as §2

[13] = tested on: Setaria viridis; assay: Pre-emergence herbicidal action; settings: application rate 20 g/ha
Excerpt: as §2

[14] = tested on: Alopecurus myosuroides; assay: Pre-emergence herbicidal action
Excerpt: as §2

[15] = tested on: Matricaria inodora; assay: Pre-emergence herbicidal action; settings: application rate 20 g/ha
Excerpt: as §2

[16] = tested on: Echinochloa crus-galli; assay: Pre-emergence herbicidal action
Excerpt: as §2

[17] = tested on: Viola tricolor; assay: Pre-emergence herbicidal action; settings: application rate 20 g/ha
Excerpt: as §2

[18] = tested on: Abutilon theophrasti; assay: Pre-emergence herbicidal action; settings: application rate 20 g/ha
Excerpt: as §2

[19] = tested on: Veronica persica; assay: Pre-emergence herbicidal action; settings: application rate 20 g/ha
Excerpt: as §2

[20] = tested on: Lolium rigidum; assay: Pre-emergence herbicidal action; settings: application rate 80 g/ha
Excerpt: as §2

[21] = tested on: Amaranthus retroflexus; assay: Pre-emergence herbicidal action; settings: application rate 20 g/ha
Excerpt: as §2

[22] = tested on: Triticum aestivum; assay: Pre-emergence crop plant compatibility; settings: application rate 20 g/ha
Excerpt: (§3) B. Pre-Emergence Herbicidal Action and Crop Plant Compatibility
as §2, with “Seeds” for “B. Pre-Emergence Herbicidal Action and Crop Plant Compatibility Seeds”, “plants.” for “plants. Tables B1 to B13 below show the effects of selected compounds of the general formula (I) according to Tables I.1 to I.36 on various harmful plants and at an application rate corresponding to 80 g/ha or less, which were obtained by the experimental procedure mentioned above.”
(§4) Tables B14 to B16 below show the crop plant compatibilities of selected compounds of the general formula (I) according to Tables I.1 to I.36 at an application rate corresponding to 20 g/ha, which were obtained in experiments according to the experimental procedure mentioned above. Here, the observed effects on selected crop plants are stated in comparison to the untreated controls (values in %).

[23] = tested on: Triticum aestivum; assay: Post-emergence crop plant compatibility; settings: application rate 5 g/ha
Summary of the method: (§5)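 Greenhouse crop plants in sandy loam sprayed at one-leaf stage (2-3 weeks after sowing) with WP or EC formulations plus 0.5% additive, 600 l/ha water, at 5 g/ha or 20 g/ha. Damage scored visually after about 3 weeks as % versus untreated controls (100% = plants dead).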

[24] = tested on: Zea mays; assay: Pre-emergence crop plant compatibility; settings: application rate 20 g/ha
Excerpt: as §3
as §2, with “Seeds” for “B. Pre-Emergence Herbicidal Action and Crop Plant Compatibility Seeds”, “plants.” for “plants. Tables B1 to B13 below show the effects of selected compounds of the general formula (I) according to Tables I.1 to I.36 on various harmful plants and at an application rate corresponding to 80 g/ha or less, which were obtained by the experimental procedure mentioned above.”
as §4

[25] = tested on: Oryza sativa; assay: Post-emergence crop plant compatibility; settings: application rate 5 g/ha
Summary of the method: as §5

[26] = tested on: Zea mays; assay: Post-emergence crop plant compatibility; settings: application rate 5 g/ha
Summary of the method: as §5

Compound	Pharbitis purpurea (efficacy in %) [1] [%]	Digitaria sanguinalis (efficacy in %) ([2]; application rate 5 g/ha) [%]	Echinochloa crus-galli (efficacy in %) [5] [%]	Abutilon theophrasti (efficacy in %) [6] [%]	Veronica persica (efficacy in %) [7] [%]	Amaranthus retroflexus (efficacy in %) [8] [%]	Pharbitis purpurea (efficacy in %) ([9]; application rate 20 g/ha) [%]	Polygonum convolvulus (efficacy in %) [10] [%]	Digitaria sanguinalis (efficacy in %) [11] [%]	Avena fatua (efficacy in %) [12] [%]	Setaria viridis (efficacy in %) [13] [%]	Matricaria inodora (efficacy in %) [15] [%]	Echinochloa crus-galli (efficacy in %) ([16]; application rate 20 g/ha) [%]	Viola tricolor (efficacy in %) [17] [%]	Abutilon theophrasti (efficacy in %) [18] [%]	Veronica persica (efficacy in %) [19] [%]	Lolium rigidum (efficacy in %) [20] [%]	Amaranthus retroflexus (efficacy in %) [21] [%]	Triticum aestivum (efficacy in %) [22] [%]	Alopecurus myosuroides (efficacy in %) ([14]; application rate 80 g/ha) [%]	further results
Cn1c(C(F)(F)F)cc(=O)n(-c2cc(Oc3cccnc3OCC(=O)OCC3OCCO3)c(Cl)cc2F)c1=O [I.15-424]	100	100	100	100	100	100	100	100	100	100	100	100	90	100	100	100	100	100	10	–	Avena fatua (efficacy in %) [3]: 100%; Matricaria inodora (efficacy in %) [4]: 100%; Alopecurus myosuroides (efficacy in %) ([14]; application rate 20 g/ha): 80%
Cn1c(C(F)(F)F)cc(=O)n(-c2cc(Oc3cccnc3OCC(=O)OCCS(C)(=O)=O)c(Cl)cc2F)c1=O [I.15-166]	–	–	–	100	100	100	100	100	100	100	100	100	80	100	100	100	100	100	20	–	Triticum aestivum (efficacy in %) [23]: 0%; Alopecurus myosuroides (efficacy in %) ([14]; application rate 20 g/ha): 90%
CC(C#N)COC(=O)COc1ncccc1Oc1cc(-n2c(=O)cc(C(F)(F)F)n(C)c2=O)c(F)cc1Cl (centres unmarked) [I.15-405]	100	100	100	–	100	–	100	90	100	100	100	100	80	100	100	100	100	100	20	100	Matricaria inodora (efficacy in %) [4]: 80%; Zea mays (efficacy in %) [24]: 0%
COCCOCCOCCOCCOC(=O)COc1ncccc1Oc1cc(-n2c(=O)cc(C(F)(F)F)n(C)c2=O)c(F)cc1Cl [I.15-154]	100	–	–	100	100	100	–	100	100	100	100	100	–	100	100	100	100	100	10	100	Digitaria sanguinalis (efficacy in %) ([2]; application rate 20 g/ha): 100%; Triticum aestivum (efficacy in %) [23]: 0%; Oryza sativa (efficacy in %) [25]: 0%; Pharbitis purpurea (efficacy in %) ([9]; application rate 80 g/ha): 100%; Echinochloa crus-galli (efficacy in %) ([16]; application rate 80 g/ha): 100%; Zea mays (efficacy in %) [24]: 0%
Cn1c(C(F)(F)F)cc(=O)n(-c2cc(Oc3cccnc3OCC(=O)OC[Si](C)(C)C)c(Cl)cc2F)c1=O [I.15-201]	100	100	100	100	100	100	100	100	100	100	100	100	–	100	100	100	100	100	–	100	Oryza sativa (efficacy in %) [25]: 0%; Zea mays (efficacy in %) [26]: 20%; Echinochloa crus-galli (efficacy in %) ([16]; application rate 80 g/ha): 100%; Zea mays (efficacy in %) [24]: 0%

Source: patent US20220289708A1, “SUBSTITUTED N-PHENYL URACILS, SALTS THEREOF AND THEIR USE AS HERBICIDAL AGENTS” (Bayer Aktiengesellschaft, priority 2019, published 2022)
